According to ChEMBL document CHEMBL4808186, “Structure-Based Discovery of Pyrimidine Aminobenzene Derivatives as Potent Oral Reversal Agents against P-gp- and BCRP-Mediated Multidrug Resistance” (J Med Chem, 2021):
Calls of active or inactive are those of the source. The rule behind the calls is not given here.

How the values were obtained:
K562 [1] = assay: Cytotoxicity against human K562 cells incubated for 48 hrs by MTT assay; type: functional, cell-based; conditions: K562, 48 h
K562/A02 = assay: Cytotoxicity against P-gp overexpressing human K562/A02 cells incubated for 48 hrs by MTT assay; type: functional, cell-based; conditions: K562/A02, 48 h
[2] = n-Octanol/water partition coefficient, logP of the compound by UHPLC analysis; type: physicochemical
MDCK-II [3] = assay: cells; conditions: Canis lupus familiaris, 48 h
MDCK-II [4] = assay: cells; conditions: Canis lupus familiaris, 48 h; remark: listed apart in the source
[5] = AUC (0 to t) in Sprague-Dawley rat at 5 mg/kg, iv by UHPLC-MS analysis; type: ADME, organism-based; design: dose 5 mg/kg; conditions: in vivo
[6] = AUC (0 to t) in Sprague-Dawley rat at 20 mg/kg, po by UHPLC-MS analysis; type: ADME, organism-based; design: dose 20 mg/kg; conditions: in vivo
[7] = AUC (0 to t) in Sprague-Dawley rat at 20 mg/kg, po in presence of N-(2-(6,7-Dimethoxy-3,4-dihydroisoquinolin-2(1H)-yl)ethyl)-3-((4-(furan-2-yl)pyrimidin-2-yl)amino)-4-methylbenzamide by UHPLC-MS analysis; type: ADME, organism-based; design: dose 20 mg/kg; conditions: in vivo
[8] = Cmax in Sprague-Dawley rat at 5 mg/kg, iv by UHPLC-MS analysis; type: ADME, organism-based; design: route intravenous, dose 5 mg/kg; conditions: in vivo
[9] = Cmax in Sprague-Dawley rat at 20 mg/kg, po by UHPLC-MS analysis; type: ADME, organism-based; design: route oral, dose 20 mg/kg; conditions: in vivo
[10] = Cmax in Sprague-Dawley rat at 20 mg/kg, po in presence of N-(2-(6,7-Dimethoxy-3,4-dihydroisoquinolin-2(1H)-yl)ethyl)-3-((4-(furan-2-yl)pyrimidin-2-yl)amino)-4-methylbenzamide by UHPLC-MS analysis; type: ADME, organism-based; design: route oral, dose 20 mg/kg; conditions: in vivo
[11] = Tmax in Sprague-Dawley rat at 5 mg/kg, iv by UHPLC-MS analysis; type: ADME, organism-based; conditions: in vivo
[12] = Tmax in Sprague-Dawley rat at 20 mg/kg, po by UHPLC-MS analysis; type: ADME, organism-based; conditions: in vivo
[13] = Tmax in Sprague-Dawley rat at 20 mg/kg, po in presence of N-(2-(6,7-Dimethoxy-3,4-dihydroisoquinolin-2(1H)-yl)ethyl)-3-((4-(furan-2-yl)pyrimidin-2-yl)amino)-4-methylbenzamide by UHPLC-MS analysis; type: ADME, organism-based; conditions: in vivo
[14] = Apparent oral volume of distribution in Sprague-Dawley rat at 5 mg/kg, iv by UHPLC-MS analysis; type: ADME, organism-based; conditions: in vivo
[15] = Apparent oral volume of distribution in Sprague-Dawley rat at 20 mg/kg, po by UHPLC-MS analysis; type: ADME, organism-based; conditions: in vivo
[16] = Apparent oral volume of distribution in Sprague-Dawley rat at 20 mg/kg, po in presence of N-(2-(6,7-Dimethoxy-3,4-dihydroisoquinolin-2(1H)-yl)ethyl)-3-((4-(furan-2-yl)pyrimidin-2-yl)amino)-4-methylbenzamide by UHPLC-MS analysis; type: ADME, organism-based; conditions: in vivo
[17] = Apparent oral clearance in Sprague-Dawley rat at 5 mg/kg, iv by UHPLC-MS analysis; type: ADME, organism-based; conditions: in vivo
[18] = Apparent oral clearance in Sprague-Dawley rat at 20 mg/kg, po by UHPLC-MS analysis; type: ADME, organism-based; conditions: in vivo
[19] = Apparent oral clearance in Sprague-Dawley rat at 20 mg/kg, po in presence of N-(2-(6,7-Dimethoxy-3,4-dihydroisoquinolin-2(1H)-yl)ethyl)-3-((4-(furan-2-yl)pyrimidin-2-yl)amino)-4-methylbenzamide by UHPLC-MS analysis; type: ADME, organism-based; conditions: in vivo
[20] = Bioavailability in Sprague-Dawley rat at 5 mg/kg, iv by UHPLC-MS analysis; type: ADME, organism-based; conditions: in vivo
[21] = Oral bioavailability in Sprague-Dawley rat at 20 mg/kg by UHPLC-MS analysis; type: ADME, organism-based; conditions: in vivo
[22] = Oral bioavailability in Sprague-Dawley rat at 20 mg/kg in presence of N-(2-(6,7-Dimethoxy-3,4-dihydroisoquinolin-2(1H)-yl)ethyl)-3-((4-(furan-2-yl)pyrimidin-2-yl)amino)-4-methylbenzamide by UHPLC-MS analysis; type: ADME, organism-based; conditions: in vivo
in vivo [23] = conditions: Sprague-Dawley, rat, iv, 5 mg/kg
in vivo [24] = conditions: Sprague-Dawley, rat, po, 20 mg/kg
K562 [25] = assay: cells; conditions: Homo sapiens, K562, 48 h, read-out: Activity
[26] = target: T1, ATP-dependent translocase ABCB1 (Homo sapiens, UniProt P08183); assay: Inhibition of P-gp-mediated multidrug resistance in human K562/A02 cells assessed as Adriamycin accumulation at 1 to 10 uM pretreated 1 hr followed by treated with adriamycin measured after 180 mins by fluorescence microscopy; type: cell-based; conditions: k562/a02, 4 h, dose 1-10 µM, time 240 min
T1 sequence (P08183 whole entry): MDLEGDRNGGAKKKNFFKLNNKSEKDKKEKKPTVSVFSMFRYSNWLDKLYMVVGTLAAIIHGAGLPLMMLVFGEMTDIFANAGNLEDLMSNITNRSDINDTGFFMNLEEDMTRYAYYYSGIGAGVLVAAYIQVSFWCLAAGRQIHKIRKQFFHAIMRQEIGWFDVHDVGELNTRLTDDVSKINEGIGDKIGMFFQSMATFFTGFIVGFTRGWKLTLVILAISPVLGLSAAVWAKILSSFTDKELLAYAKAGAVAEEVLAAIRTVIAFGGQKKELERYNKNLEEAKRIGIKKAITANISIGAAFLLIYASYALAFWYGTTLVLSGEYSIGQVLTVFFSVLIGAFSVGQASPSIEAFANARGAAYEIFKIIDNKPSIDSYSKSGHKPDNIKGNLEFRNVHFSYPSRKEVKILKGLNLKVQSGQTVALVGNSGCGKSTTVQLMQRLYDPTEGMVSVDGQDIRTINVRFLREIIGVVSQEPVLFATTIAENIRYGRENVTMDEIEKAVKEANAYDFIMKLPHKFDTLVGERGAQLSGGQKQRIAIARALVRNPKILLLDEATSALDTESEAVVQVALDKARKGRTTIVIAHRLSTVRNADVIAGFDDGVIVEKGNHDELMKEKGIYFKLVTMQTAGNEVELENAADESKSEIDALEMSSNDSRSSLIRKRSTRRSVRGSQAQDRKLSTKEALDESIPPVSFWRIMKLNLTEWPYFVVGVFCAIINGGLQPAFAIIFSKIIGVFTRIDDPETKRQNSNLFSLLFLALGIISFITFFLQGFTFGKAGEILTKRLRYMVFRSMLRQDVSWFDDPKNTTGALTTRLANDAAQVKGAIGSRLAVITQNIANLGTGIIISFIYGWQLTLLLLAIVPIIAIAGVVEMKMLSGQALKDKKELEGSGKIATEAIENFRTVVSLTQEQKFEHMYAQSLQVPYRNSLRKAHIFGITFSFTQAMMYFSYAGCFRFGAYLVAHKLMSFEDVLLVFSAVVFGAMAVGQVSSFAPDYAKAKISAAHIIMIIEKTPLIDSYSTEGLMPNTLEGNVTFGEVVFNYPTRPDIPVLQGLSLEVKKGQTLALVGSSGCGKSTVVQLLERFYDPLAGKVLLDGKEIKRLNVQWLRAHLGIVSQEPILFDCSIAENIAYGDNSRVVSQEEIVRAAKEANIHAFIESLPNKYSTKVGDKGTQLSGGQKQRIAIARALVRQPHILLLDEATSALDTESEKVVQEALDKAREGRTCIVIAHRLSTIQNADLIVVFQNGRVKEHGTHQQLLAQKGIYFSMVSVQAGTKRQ

[27] = target: T1, ATP-dependent translocase ABCB1; assay: Inhibition of P-gp-mediated multidrug resistance in human K562/A02 cells assessed as Adriamycin accumulation pretreated 1 hr followed by treated with adriamycin measured after 180 mins by flow cytometry; type: cell-based; conditions: k562/a02, 4 h, time 240 min
MDCK-II [28] = assay: Inhibition of BCRP-mediated multidrug resistance in MDCK-II cells assessed as mitoxantrone accumulation at 0.1 to 5 uM pretreated 1 hr followed by treated with mitoxantrone measured after 180 mins by flow cytometry; type: cell-based; conditions: Canis lupus familiaris, dose 0.1-5 µM, time 240.0 min

SMILES | IC50 (K562 [1]) | IC50 (K562/A02; read-out: IC50) | logP [2] | IC50 (MDCK-II [3]) | IC50 (MDCK-II [4]) | further results
COc1cc2c(cc1OC)CN(CCc1ccc(NC(=O)c3ccc(C)c(Nc4nccc(-c5ccccc5O)n4)c3)cc1)CC2 | > 100 µM | > 100 µM | 2.77 | > 100 µM | > 100 µM | –
COc1cc2c(cc1OC)CN(CCc1ccc(NC(=O)c3cc(=O)c4c(O)cccc4o3)cc1)CC2 | > 100 µM | 45.3 µM | 1.78 | 85.7 µM | 68.4 µM | –
COc1cc2c(cc1OC)CN(CCc1ccc(NC(=O)c3ccc(C)c(Nc4nccc(-c5ccc(C)cc5)n4)c3)cc1)CC2 | > 100 µM | – | – | > 100 µM | 61.3 µM | –
COc1cc2c(cc1OC)CN(CCc1ccc(NC(=O)c3cc(=O)c4c(OC)cccc4o3)cc1)CC2 | > 100 µM | > 100 µM | 0.76 | > 100 µM | > 100 µM | –
COc1ccc(-c2ccnc(Nc3cc(C(=O)Nc4ccc(CCN5CCc6cc(OC)c(OC)cc6C5)cc4)ccc3C)n2)cc1 | > 100 µM | > 100 µM | 1.35 | > 100 µM | > 100 µM | –
COc1cc2c(cc1OC)CN(CCNC(=O)c1ccc(C)c(Nc3nccc(-c4cccs4)n3)c1)CC2 | > 100 µM | 72 µM | 1.94 | > 100 µM | 61.5 µM | –
COc1cc2c(cc1OC)CN(CCc1ccc(NC(=O)c3ccc(C)c(Nc4nccc(-c5cccnc5)n4)c3)cc1)CC2 | > 100 µM | 60.4 µM | 1.86 | > 100 µM | > 100 µM | –
CC(=O)O[C@H]1C(=O)[C@@]2(C)[C@H]([C@H](OC(=O)c3ccccc3)[C@]3(O)C[C@H](OC(=O)[C@H](O)[C@@H](NC(=O)c4ccccc4)c4ccccc4)C(C)=C1C3(C)C)[C@]1(OC(C)=O)CO[C@@H]1C[C@@H]2O [PACLITAXEL] | – | – | – | – | – | AUC(0-t) [5]: 1.73 µg·h/mL; AUC(0-t) [6]: 0.611 µg·h/mL; AUC(0-t) [7]: 4.49 µg·h/mL; Cmax [8]: 0.926 µg/mL; Cmax [9]: 0.233 µg/mL; Cmax [10]: 0.853 µg/mL; Tmax [11]: 0.44 h; Tmax [12]: 2 h; Tmax [13]: 2.65 h; Vd/F [14]: 5.06 L; Vd/F [15]: 67.4 L; Vd/F [16]: 19.06 L; CL/F [17]: 2.88 L/h; CL/F [18]: 546 mL/min; CL/F [19]: 4.43 L/h; F [20]: 100%; bioavailability [21]: 8.8%; bioavailability [22]: 64.7%; half-life (in vivo [23]): 7.2 min; half-life (in vivo [24]): 1.35 h
COc1cc2c(cc1OC)CN(CCNC(=O)c1ccc(C)c(Nc3nccc(-c4cccc(O)c4)n3)c1)CC2 | > 100 µM | 57.5 µM | – | > 100 µM | 72.6 µM | –
COc1cc2c(cc1OC)CN(CCc1ccc(NC(=O)c3cc(=O)c4ccc(C)cc4o3)cc1)CC2 | > 100 µM | > 100 µM | 1.87 | > 100 µM | 88.7 µM | –
COc1cc2c(cc1OC)CN(CCc1ccc(NC(=O)c3cc(=O)c4cc(F)ccc4o3)cc1)CC2 | > 100 µM | 82 µM | – | > 100 µM | > 100 µM | –
COc1cc2c(cc1OC)CN(CCc1ccc(NC(=O)c3ccc(C)c(Nc4nccc(-c5ccccc5)n4)c3)cc1)CC2 | > 100 µM | > 100 µM | 1.89 | > 100 µM | 79.7 µM | –
Cc1ccc(NC(=O)c2ccc(CN3CCN(C)CC3)cc2)cc1Nc1nccc(-c2cccnc2)n1 [IMATINIB] | 87.3 µM | – | – | 65.8 µM | > 100 µM | IC50 (K562/A02): 75.7 µM; viability at 5 µM (K562 [25]): 81.6%
COc1cc2c(cc1OC)CN(CCNC(=O)c1ccc(C)c(Nc3nccc(-c4ccccc4O)n3)c1)CC2 | > 100 µM | 52.3 µM | 2.31 | 91.4 µM | – | –
COc1cc2c(cc1OC)CN(CCNC(=O)c1ccc(C)c(Nc3nccc(-c4ccccc4)n3)c1)CC2 | > 100 µM | 66.2 µM | 1.9 | > 100 µM | 4740 µM | –
COc1cc2c(cc1OC)CN(CCc1ccc(NC(=O)c3ccc(C)c(Nc4nccc(-c5cccc(O)c5)n4)c3)cc1)CC2 | > 100 µM | 84.2 µM | 2.28 | > 100 µM | > 100 µM | –
COc1cc2c(cc1OC)CN(CCNC(=O)c1ccc(C)c(Nc3nccc(-c4cccnc4)n3)c1)CC2 | > 100 µM | > 100 µM | 0.8 | > 100 µM | > 100 µM | –
COc1cc2c(cc1OC)CN(CCc1ccc(NC(=O)c3cc(=O)c4ccccc4o3)cc1)CC2 | > 100 µM | > 100 µM | 0.93 | > 100 µM | > 100 µM | –
COc1cc2c(cc1OC)CN(CCc1ccc(NC(=O)c3ccc(C)c(Nc4nccc(-c5ccc(F)cc5)n4)c3)cc1)CC2 | > 100 µM | > 100 µM | 1.19 | > 100 µM | > 100 µM | –
COc1cc2c(cc1OC)CN(CCc1ccc(NC(=O)c3cc(OC)c(OC)cc3NC(=O)c3cnc4ccccc4c3)cc1)CC2 | > 100 µM | > 100 µM | – | > 100 µM | 83.6 µM | Activity [26]: Active; Activity [27]: Dose-Dependent Effect; Activity (MDCK-II [28]): Active; viability at 5 µM (K562 [25]): 61.3%
COc1cc2c(cc1OC)CN(CCNC(=O)c1ccc(C)c(Nc3nccc(-c4ccc(F)cc4)n3)c1)CC2 | > 100 µM | 75.3 µM | 2.04 | > 100 µM | 57.6 µM | –
COc1cc2c(cc1OC)CN(CCNC(=O)c1ccc(C)c(Nc3nccc(-c4ccc(C)cc4)n3)c1)CC2 | 73.8 µM | 58.7 µM | – | > 100 µM | 42.1 µM | –
COc1cc2c(cc1OC)CN(CCc1ccc(NC(=O)c3ccc(C)c(Nc4nccc(-c5cccs5)n4)c3)cc1)CC2 | > 100 µM | > 100 µM | 1.48 | > 100 µM | > 100 µM | –
COc1cc2c(cc1OC)CN(CCNC(=O)c1ccc(C)c(Nc3nccc(-c4ccccn4)n3)c1)CC2 | > 100 µM | 89.6 µM | 1.71 | > 100 µM | 64.2 µM | –
COc1ccc(-c2ccnc(Nc3cc(C(=O)NCCN4CCc5cc(OC)c(OC)cc5C4)ccc3C)n2)cc1 | > 100 µM | 64.9 µM | 2.16 | > 100 µM | 55.2 µM | –
COc1ccc2c3c([nH]c2c1)[C@H](CC(C)C)N1C(=O)[C@H](CCC(=O)OC(C)(C)C)NC(=O)[C@@H]1C3 | 71.5 µM | 58.7 µM | – | 87.2 µM | 58.3 µM | Activity (MDCK-II [28]): Active
COc1ccc(CCN(C)CCCC(C#N)(c2ccc(OC)c(OC)c2)C(C)C)cc1OC (stereo unspecified) | > 100 µM | > 100 µM | – | – | – | Activity [26]: Active; Activity [27]: Dose-Dependent Effect
COc1cc2c(cc1OC)CN(CCc1ccc(NC(=O)c3ccc(C)c(Nc4nccc(-c5ccco5)n4)c3)cc1)CC2 | > 100 µM | > 100 µM | 1.7 | > 100 µM | > 100 µM | –
COc1cc2c(cc1OC)CN(CCc1ccc(NC(=O)c3ccc(C)c(Nc4nccc(-c5ccccn5)n4)c3)cc1)CC2 | > 100 µM | 89.6 µM | 1.73 | > 100 µM | > 100 µM | –
